What all share (assay type): in vitro ADME
For data set [1], the target named is T1, human P-gp (Homo sapiens, UniProt P08183).
T1 construct: purchased GenoMembrane Co., Ltd. (Kanagawa, Japan); host or cells: Sf9
The experiment in a line: [14C]fluciclovine uptake by P-gp-expressing inside-out vesicles. As to the method:
For ABC transporters, experimental kits containing Sf9-derived vesicles with high expression levels of human P-gp, MRP4, BCRP, and each ABC transporter (including buffer, ATP/AMP solution, and glutathione) were purchased from GenoMembrane Co., Ltd. (Kanagawa, Japan).
Vesicular transport assays were carried out according to the manufacturer’s protocol. […] The reaction was started by suspending 50 μg of vesicles (10 μL) in 40 μL of the reaction buffer. After incubation for an appropriate period of time, the reaction was stopped by the addition of ice-cold stop buffer (40 mM MOPS-Tris and 70 mM KCl; pH 7.0), after which the solution was filtered through a 0.45 μm HA filter (Millipore Corp., Billerica, MA, USA) using suction, and was washed twice in 5 mL of ice-cold stop buffer. The radioactivity of the filter was measured with a Tri-Carb 2910TR liquid scintillation counter (PerkinElmer) using Ultima Gold (PerkinElmer). The amount of tracer uptake was normalized to the membrane protein amount described in the product information sheets.

In data set [2] the target is T2, OAT3 (Homo sapiens, UniProt Q8TCC7).
T2 construct: host or cells: HEK293
T2 sequence (Q8TCC7 1-542): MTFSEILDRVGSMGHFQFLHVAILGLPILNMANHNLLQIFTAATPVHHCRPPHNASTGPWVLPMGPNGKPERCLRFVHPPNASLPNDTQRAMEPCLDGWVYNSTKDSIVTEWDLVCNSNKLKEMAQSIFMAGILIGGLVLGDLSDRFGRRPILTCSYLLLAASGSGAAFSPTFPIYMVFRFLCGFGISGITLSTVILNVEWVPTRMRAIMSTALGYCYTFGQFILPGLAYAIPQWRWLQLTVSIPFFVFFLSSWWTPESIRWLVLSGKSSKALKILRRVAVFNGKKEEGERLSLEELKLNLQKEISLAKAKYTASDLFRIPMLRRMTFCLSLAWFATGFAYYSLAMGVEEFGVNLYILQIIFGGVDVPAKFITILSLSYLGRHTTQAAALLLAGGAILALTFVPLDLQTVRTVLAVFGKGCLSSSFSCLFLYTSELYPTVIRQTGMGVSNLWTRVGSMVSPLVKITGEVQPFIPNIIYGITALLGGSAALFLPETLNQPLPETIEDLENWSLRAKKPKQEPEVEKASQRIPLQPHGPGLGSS
The experiment in a line: [14C]fluciclovine uptake by OAT3-expressing cells. The conditions noted are these: OAT3 cells vs mock cells.

Data set [3] deals with T3, OAT1 (Homo sapiens, UniProt Q4U2R8).
T3 construct: host or cells: Flp-in-293
T3 sequence (Q4U2R8 1-563): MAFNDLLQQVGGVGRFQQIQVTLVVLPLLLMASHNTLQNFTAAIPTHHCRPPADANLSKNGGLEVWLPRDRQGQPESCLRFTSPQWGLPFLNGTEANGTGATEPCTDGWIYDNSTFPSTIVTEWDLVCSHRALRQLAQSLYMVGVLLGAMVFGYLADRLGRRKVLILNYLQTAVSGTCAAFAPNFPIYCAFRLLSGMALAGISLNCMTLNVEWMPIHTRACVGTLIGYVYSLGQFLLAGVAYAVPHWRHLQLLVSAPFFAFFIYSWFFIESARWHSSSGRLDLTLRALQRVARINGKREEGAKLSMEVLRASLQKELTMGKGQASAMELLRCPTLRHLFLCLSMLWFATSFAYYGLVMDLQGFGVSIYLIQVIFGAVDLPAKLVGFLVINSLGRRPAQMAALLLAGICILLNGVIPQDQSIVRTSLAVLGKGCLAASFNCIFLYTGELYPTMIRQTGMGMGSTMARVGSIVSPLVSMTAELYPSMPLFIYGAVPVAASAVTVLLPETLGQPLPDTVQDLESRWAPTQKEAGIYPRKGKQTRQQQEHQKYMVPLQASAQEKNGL
The experiment in a line: Inhibition of tracer uptake in OAT1-expressing cells. The conditions noted are these: OAT1, tracer [14C]PAH 1 µM. As for the experimental part:
For the SLC transporter experiments, Mock Flp-in-293 cells (Flp/mock), OAT1-expressing Flp-in-293 cells (Flp/OAT1), mock HEK293 cells (HEK/mock), and OATP1B3-expressing HEK293 cells (HEK/OATP1B3) were obtained from Kanazawa University (Ishikawa, Japan). Briefly, Flp-in-293 and HEK293 cells were transfected with the appropriate plasmid DNA and selected using antibiotics (hygromycin or G-418). All cell lines were cultured in DMEM (Life Technologies Japan) supplemented with 10% (v/v) fetal bovine serum (American Type Culture Collection) and antibiotics (100 U/mL penicillin and 100 μg/mL streptomycin (Life Technologies Japan) for mock cells, 0.2 mg/mL hygromycin for Flp/OAT1 cells, and 1.2 mg/mL G-418 (Roche Diagnostics K.K., Tokyo, Japan) for HEK/OATP1B3 cells) at 37 °C under an atmosphere containing 5% CO2. […]
The experiments were performed as described previously, with minor modifications. […] The cells were lysed in 0.3 mL of 0.1N NaOH at room temperature, after which the radioactivity of each aliquot was measured as described above. The protein concentration of the cell lysate was determined with a VersaMax microplate reader (Molecular Devices Japan K.K., Osaka, Japan) or SpectraMax i3x (Molecular Devices Japan K.K.; only for OATP1B1) using a BCA Protein Assay Kit (Thermo Fisher Scientific, Kanagawa, Japan). Tracer uptake was expressed as pmol/mg protein. […]

T1 sequence (P08183 whole entry): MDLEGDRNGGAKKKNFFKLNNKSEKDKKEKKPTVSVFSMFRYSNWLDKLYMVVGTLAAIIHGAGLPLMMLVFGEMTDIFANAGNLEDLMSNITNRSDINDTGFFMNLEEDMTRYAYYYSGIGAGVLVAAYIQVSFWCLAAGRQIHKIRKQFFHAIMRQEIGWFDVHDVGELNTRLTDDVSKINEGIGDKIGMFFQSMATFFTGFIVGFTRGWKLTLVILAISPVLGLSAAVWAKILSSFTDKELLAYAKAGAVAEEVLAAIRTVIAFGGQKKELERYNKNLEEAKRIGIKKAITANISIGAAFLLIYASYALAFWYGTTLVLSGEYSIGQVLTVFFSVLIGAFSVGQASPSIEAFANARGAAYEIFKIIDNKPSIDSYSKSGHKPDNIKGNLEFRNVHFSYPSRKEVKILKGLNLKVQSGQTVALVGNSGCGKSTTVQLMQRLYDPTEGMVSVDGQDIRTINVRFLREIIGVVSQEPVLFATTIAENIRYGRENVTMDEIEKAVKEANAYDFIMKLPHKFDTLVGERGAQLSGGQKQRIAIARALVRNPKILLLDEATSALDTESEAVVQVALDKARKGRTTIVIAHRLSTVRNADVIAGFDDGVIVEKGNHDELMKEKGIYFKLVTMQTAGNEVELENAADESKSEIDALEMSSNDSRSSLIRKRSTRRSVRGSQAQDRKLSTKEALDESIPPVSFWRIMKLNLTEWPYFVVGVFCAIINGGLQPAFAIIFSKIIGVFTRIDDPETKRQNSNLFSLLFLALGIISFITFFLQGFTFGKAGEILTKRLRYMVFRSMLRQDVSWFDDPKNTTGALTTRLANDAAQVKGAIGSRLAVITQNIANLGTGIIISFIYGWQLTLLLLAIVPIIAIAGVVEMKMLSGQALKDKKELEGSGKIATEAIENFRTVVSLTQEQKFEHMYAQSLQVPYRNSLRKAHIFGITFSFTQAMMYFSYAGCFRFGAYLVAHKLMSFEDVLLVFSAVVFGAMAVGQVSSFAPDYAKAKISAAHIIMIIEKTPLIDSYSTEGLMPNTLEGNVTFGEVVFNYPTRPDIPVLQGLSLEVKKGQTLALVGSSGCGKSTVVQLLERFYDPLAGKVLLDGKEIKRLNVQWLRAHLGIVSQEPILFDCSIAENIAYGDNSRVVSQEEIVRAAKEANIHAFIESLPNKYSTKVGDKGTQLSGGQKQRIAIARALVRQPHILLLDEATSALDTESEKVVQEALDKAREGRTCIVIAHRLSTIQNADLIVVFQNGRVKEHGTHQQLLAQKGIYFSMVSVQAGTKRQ

With `N[14C]1(C(=O)O)CC(F)C1` (stereo not drawn) [[^14C]fluciclovine, trans-1-amino-3-fluoro[1-^14C]cyclobutanecarboxylic acid], the “uptake compared with control vesicles” value in data set [1] is “no significant difference”. The drug transporter-mediated uptake entry in data set [2] is on record as “negligible”.
As a reminder, the IC50 is the midpoint of a concentration-inhibition curve. A high value points to weaker potency in that assay. Take `N[C@]1(C(=O)O)C[C@@H](F)C1` [fluciclovine]: in data set [3], the IC50 was 3.98 ± 1.77 mM.

For the origin of these results see paper PMC5085761 (International Journal of Molecular Sciences, 2016).
